Earlier results, collected in patent publication US6432400B1, “Specific pancreatic lipase inhibitors and their applications” (Laboratoire Laphal (Laboratoire de Pharmacologie Appliquee), priority 1997, dated 2002).

Experiments:
[1] = biological target: T1, pancreatic lipase (Homo sapiens, UniProt P16233); conditions: 1 mol of THL/mol of enzyme
T1 sequence (P16233 17-465): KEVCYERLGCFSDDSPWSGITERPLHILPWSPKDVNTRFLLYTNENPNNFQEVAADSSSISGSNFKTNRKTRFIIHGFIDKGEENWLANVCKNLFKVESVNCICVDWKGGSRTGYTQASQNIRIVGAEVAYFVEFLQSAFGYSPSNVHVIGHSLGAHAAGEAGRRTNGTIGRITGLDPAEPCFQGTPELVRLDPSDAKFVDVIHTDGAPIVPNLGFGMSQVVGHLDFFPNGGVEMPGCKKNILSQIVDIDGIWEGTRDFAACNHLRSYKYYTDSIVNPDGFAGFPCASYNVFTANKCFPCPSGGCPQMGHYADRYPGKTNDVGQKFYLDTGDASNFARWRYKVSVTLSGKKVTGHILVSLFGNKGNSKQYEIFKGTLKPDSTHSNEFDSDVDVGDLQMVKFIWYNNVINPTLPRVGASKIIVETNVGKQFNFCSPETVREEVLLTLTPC

[2] = system: carboxylester lipase, gastric lipase and lipase stimulated by the bile salts in human milk; conditions: inhibits carboxylester lipase, gastric lipase and bile-salt-stimulated lipase of human milk

Question: For `CCCCCCCCCCC[C@@H](C[C@@H]1OC(=O)[C@H]1CCCCCC)OC(=O)[C@H](CC(C)C)NC=O` [THL, tetrahydrolipstatin], which “inhibition of the lipolytic activity” value [1] is on record?
Answer: Its value is “complete inhibition”.

Question: And the “specificity for pancreatic lipase” value [2]?
Answer: Its value is “not specific for pancreatic lipase”.
